Source: the supplement of paper PMC10307832

Columns and labels:
Assay in all cases: relative viability (nuclei count vs DMSO), 5 days (fraction); higher = more cells survive
Ispinesib + Alpelisib = compound: Cc1ccc(C(=O)N(CCCN)[C@@H](c2nc3cc(Cl)ccc3c(=O)n2Cc2ccccc2)C(C)C)cc1 [Ispinesib] + Cc1nc(NC(=O)N2CCC[C@H]2C(N)=O)sc1-c1ccnc(C(C)(C)C(F)(F)F)c1 [Alpelisib] (partner 2 µM)
Method in brief: (§1)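 One day after seeding in 1536-well plates, lung cancer cell lines were dosed by pin tool. Dosing was either single-drug or a fixed anchor-drug dose plus five library-drug doses (not always all listed) in √10 steps. After 5 days, nuclei were stained in one fix-and-stain step and counted on 4× images, and relative viability is the nuclei count of treated wells over that of vehicle wells, given as the median of duplicate plates.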

Linsitinib + Foretinib = compound: C[C@]1(O)C[C@@H](c2nc(-c3ccc4ccc(-c5ccccc5)nc4c3)c3c(N)nccn32)C1 [Linsitinib] + COc1cc2c(Oc3ccc(NC(=O)C4(C(=O)Nc5ccc(F)cc5)CC4)cc3F)ccnc2cc1OCCCN1CCOCC1 [Foretinib] (partner 0.25 µM)
Method in brief: as §1

Linsitinib + Crizotinib = compound: C[C@]1(O)C[C@@H](c2nc(-c3ccc4ccc(-c5ccccc5)nc4c3)c3c(N)nccn32)C1 [Linsitinib] + C[C@@H](Oc1cc(-c2cnn(C3CCNCC3)c2)cnc1N)c1c(Cl)ccc(F)c1Cl [Crizotinib] (partner 1 µM)
Method in brief: as §1

Linsitinib + Olaparib = compound: C[C@]1(O)C[C@@H](c2nc(-c3ccc4ccc(-c5ccccc5)nc4c3)c3c(N)nccn32)C1 [Linsitinib] + O=C(c1cc(Cc2n[nH]c(=O)c3ccccc23)ccc1F)N1CCN(C(=O)C2CC2)CC1 [Olaparib] (partner 8 µM)
Method in brief: as §1

Cell Line	relative viability (Ispinesib + Alpelisib; first compound 0.001 µM)	relative viability (Ispinesib + Alpelisib; first compound 0.003162 µM)	relative viability (Ispinesib + Alpelisib; first compound 0.01 µM)	relative viability (Ispinesib + Alpelisib; first compound 0.03162 µM)	relative viability (Ispinesib + Alpelisib; first compound 0.1 µM)	relative viability (Linsitinib + Foretinib; first compound 0.01 µM)	relative viability (Linsitinib + Foretinib; first compound 0.03162 µM)	relative viability (Linsitinib + Foretinib; first compound 0.1 µM)	relative viability (Linsitinib + Foretinib; first compound 0.3162 µM)	relative viability (Linsitinib + Foretinib; first compound 1 µM)	relative viability (Linsitinib + Crizotinib; first compound 0.01 µM)	relative viability (Linsitinib + Crizotinib; first compound 0.03162 µM)	relative viability (Linsitinib + Crizotinib; first compound 0.1 µM)	relative viability (Linsitinib + Crizotinib; first compound 1 µM)	relative viability (Linsitinib + Olaparib; first compound 0.01 µM)	relative viability (Linsitinib + Olaparib; first compound 0.03162 µM)	relative viability (Linsitinib + Olaparib; first compound 0.1 µM)	relative viability (Linsitinib + Olaparib; first compound 1 µM)	relative viability (Linsitinib + Crizotinib; first compound 0.3162 µM)	relative viability (Linsitinib + Olaparib; first compound 0.3162 µM)
NCI-H650	1.11	1.23	1.29	1.05	0.353	1.04	1.08	0.969	0.782	0.966	0.736	0.907	0.857	0.703	0.381	0.537	0.405	0.398		
NCI-H661	0.593	0.972	0.745	0.369	0.508	0.974	1.07	1.01	0.932	1		0.862	1.04	0.93	0.665	0.666	0.751	0.744	0.85	0.749
NCI-H727		0.565	0.545	0.486	0.404	0.836	0.866	0.647	0.632	0.611	0.839	0.905	0.743	0.601	0.694	0.773	0.747	0.601	0.727	0.449
NCI-H838	1.17	1.06	1.1	1.04	0.426	0.996	0.855	0.894		0.716	0.787	0.704	0.826	0.64	0.754	0.722	0.73	0.533	0.673	0.482
NCI-H1299	1.11	1.09	1.15	1.17	0.449	1.07	1.11	1.13	1.12	1.11	0.96	0.975	1	0.931	0.915	1.03	1	0.93	0.949	0.976
NCI-H1355	0.841	0.866	0.979	0.596	0.859	0.973	0.964	0.873	0.811	0.759	0.974	0.997	0.888	0.664	0.741	0.742	0.628	0.353	0.79	0.483
NCI-H1437	1.11	1.14	0.972	0.893	0.272	1.18	1.11	1.25	0.822	1.25	0.897	0.75	0.993	0.972	0.636	0.632	0.667	0.584	0.853	0.636
NCI-H1651	0.957	0.99	1.26	1.05	0.206	0.7	0.81	0.753	0.683	0.734	0.874	0.93	0.803	0.862	0.18	0.169	0.191	0.178	0.735	0.171
NCI-H1666	1.07	0.936	0.988	0.567	0.388	0.94	1.05	0.933	0.758	0.852	0.949	1.13	0.907	0.552	0.743	1.02	0.76	0.75	0.594	0.667
NCI-H1703	0.352	0.322	0.224	0.0938	0.135	0.356		0.379	0.513	0.267	0.585		0.595	0.35	0.479		0.448	0.189	0.93	0.755
NCI-H1734	0.659	0.743	0.763	0.721	0.517	0.827	0.866	0.801	0.795	0.604	0.592	0.723	0.719	0.462	0.592	0.625	0.593	0.535	0.694	0.57
NCI-H1755	1.09	1.03	1.16	0.815	0.547	0.864	0.892	0.956	0.865	0.8	0.833	0.85	0.901	0.81	0.893	0.887	0.9	0.753	0.825	0.699
NCI-H1915	1.09	1.16	1.03	0.958	0.979	1.13	1.08	1.08	0.986	0.923	0.944	0.918	0.936	0.754	0.238	0.221	0.243	0.237	0.796	0.225
NCI-H1944	0.861	0.803	0.851	0.508	0.634	0.921	1.02	0.821	0.674	0.674	1.05	1.21	1.17	0.892	0.437	0.521	0.4	0.382	0.926	0.333
NCI-H1975	0.738	0.672	0.666	0.332	0.226	0.848	0.869	0.87	0.87	0.781	0.949	0.993	0.918	0.727	0.775	0.678	0.737	0.584	0.899	0.645
NCI-H1993	0.697	0.637	0.709	0.663	0.596	0.753	0.724	0.653	0.759	0.657	0.867	0.852	0.866	0.636	1.09	0.692	0.879	0.982	0.969	0.698
